# Experimental data reported in ChEMBL document CHEMBL1126767, “Three-dimensional quantitative structure-activity relationship of angiotesin-converting enzyme and thermolysin inhibitors. II. A comparison of CoMFA models incorporating molecular orbital fields and desolvation free energies based on active-analog and complementary-receptor-field alignment rules” (J Med Chem, 1993).
# Square brackets hold non-standard residues; d marks the D form. Peptide text beside a SMILES is read from it. ξ: configuration not given here. ξC = NC(CS)C(=O)O; Mpa = O=C(O)CCS
# Target: Angiotensin-converting enzyme (Homo sapiens, UniProt P12821)
# Experiment: Inhibitory activity against angiotensin converting enzyme (ACE)
# Assay type: functional
row,SMILES,IC50 [µM]
1,C[C@@H](N)C(=O)N[C@@H](Cc1ccccc1)C(=O)O (stereo in doubt; 53),52.5
2,O=C(O)[C@@H]1CCCN1C(=O)CCP(=O)(O)O,47.9
3,O=C(O)[C@@H]1CCCN1CCCS,240
4,O=C(CCS)N[C@@H](Cc1cnc[nH]1)C(=O)O,229
5,O=C(O)[C@@H]1CCCN1C(=O)CP(=O)(O)O,8.32
6,O=C(CCS)N[C@@H](Cc1c[nH]c2ccccc12)C(=O)O (stereo in doubt; form 1),> 1000
7,CCC(C)[C@H](NC(=O)CCC(=O)O)C(=O)O (some centres undefined),1050
8,O=C(CS)N[C@@H](CS)C(=O)O,19.1
9,O=C(O)CCNC(=O)CCS,490
10,C[C@H](CC(=O)O)C(=O)N1CCC[C@H]1C(=O)O,10.2
11,CC(CS)C(=O)N[C@@H](Cc1c[nH]c2ccccc12)C(=O)O (stereo in doubt),33.1
12,O=C(O)CCC(=O)N1CCC[C@H]1C(=O)O,33.1
13,O=C(CS)N[C@@H](Cc1c[nH]cn1)C(=O)O,257
14,CC[C@@H](C)[C@H](C)C(=O)N[C@@H](Cc1ccccc1)C(=O)O,933
15,O=C(O)[C@@H]1CCCN1C(=O)CCS (stereo in doubt; 56),17
16,CC(C)[C@H](N)C(=O)N1CCC[C@H]1C(=O)O (H-Val-Pro-OH),417
17,CC(C)(S)C(=O)N[C@@H](Cc1c[nH]c2ccccc12)C(=O)O,38
18,O=C(O)[C@@H]1CCC(=O)N1CCCS,646
19,C[C@@H](N)C(=O)N[C@@H](Cc1ccccc1)C(=O)O (stereo in doubt; 52),191
20,O=C(O)C[C@H](NC(=O)CS)C(=O)O,77.6
21,O=C(O)CCC(=O)NCC(=O)O,2000

row,SMILES,IC50 [µM]
1,O=C(O)[C@H]1CCCN1C(=O)CCS,1820
2,CC[C@H](C)[C@H](N)C(=O)N1CCC[C@H]1C(=O)O (H-Ile-Pro-OH),129
3,CC(C)(C)OC(=O)[C@@H]1CCCN1C(=O)CCS,38.9
4,C[C@H](CCC(=O)O)C(=O)N1CCC[C@H]1C(=O)O,4.9
5,CC(C)C[C@H](NC(=O)CCC(=O)O)C(=O)O,617
6,C[C@H](NC(=O)CCC(=O)O)C(=O)O,1350
7,CC(S)C(=O)N[C@@H](CS)C(=O)O (stereo in doubt; form 1),537
8,NCC(=O)N[C@@H](Cc1ccccc1)C(=O)O (H-Gly-Phe-OH),603
9,C[C@H](NCCCc1ccccc1)C(=O)N1CCC[C@H]1C(=O)O,5.75
10,O=C(CCS)N[C@@H](CS)C(=O)O,67.6
11,C[C@H](NP(=O)(O)O)C(=O)N1CCC[C@H]1C(=O)O,0.776
12,C[C@H](NC(CCc1ccccc1)C(N)=O)C(=O)N1CCC[C@H]1C(=O)O (some centres undefined),25.7
13,CC(C)(S)C(=O)N[C@@H](CS)C(=O)O [BUCILLAMINE],7240
14,CN(C(=O)CCS)[C@@H](Cc1ccccc1)C(=O)O,30.9
15,O=C(N[C@H](CCC(=O)N1CCC[C@H]1C(=O)O)C(=O)O)C1CCCN1C(=O)OCc1ccccc1 (some centres undefined),2.51
16,C[C@H](NC(=O)CCS)C(=O)N1CCC[C@H]1C(=O)O ([Mpa]-Ala-Pro-OH),2.57
17,NCC(=O)N1CCC[C@H]1C(=O)O [GLYCYL PROLINE] (H-Gly-Pro-OH),447
18,CN(CC(=O)O)C(=O)CCS,3.02
19,O=C(O)CCCCCS,1100
20,CC(C)(S)C(=O)N[C@@H](CC(=O)O)C(=O)O,3470
21,CC(S)C(=O)N[C@@H](CS)C(=O)O (stereo in doubt; form 2),7.94

# Continued by falling IC50, values first:
row,IC50 [µM],SMILES
1,2.4,O=C(O)CCC(=O)CCS
2,2.4,C[C@H](NCC(=O)O)C(=O)N1CCC[C@H]1C(=O)O
3,1.58,CC(C)[C@H](NC(=O)CCS)C(=O)O
4,0.851,C[C@H](NC(=O)CCS)C(=O)O
5,0.759,O=C(CS)N[C@@H](Cc1c[nH]c2ccccc12)C(=O)O
6,0.708,O=C(CCS)OC(Cc1ccccc1)C(=O)O (centres undefined)
7,0.708,O=C(O)[C@@H]1C=CCn2c(=O)n(CS)c(=O)n21
8,0.457,O=C(O)CCc1cc(O)c2n(c1=O)[C@H](C(=O)O)CC2
9,0.437,COP(=O)(O)C(CCc1ccccc1)N[C@@H](C)C(=O)N1CCC[C@H]1C(=O)O (some centres undefined)
10,0.427,O=C(CCS)N[C@@H](Cc1ccccc1)C(=O)O
11,0.363,CC(S)C(=O)N[C@@H](Cc1c[nH]c2ccccc12)C(=O)O (stereo in doubt; form 1)
12,0.339,NCCCC[C@H](OP(=O)(O)CCCCc1ccccc1)C(=O)N1C[C@H](c2ccccc2)C[C@H]1C(=O)O
13,0.324,C[C@H](NC(CCN)C(=O)O)C(=O)N1CCC[C@H]1C(=O)O (some centres undefined)
14,0.219,N[C@@H](Cc1ccccc1)C(=O)N[C@H](CCC(=O)N1[C@H](C(=O)O)C[C@@H]2CCCC[C@@H]21)C(=O)O
15,0.2,O=C(O)[C@@H]1CCCN1C(=O)CCS (stereo in doubt; 34)
16,0.1,C[C@@]1(CCS)C(=O)N2CC=C[C@@H](C(=O)O)N2C1=O
17,0.1,NC(Cc1ccccc1)C(=O)N[C@H](CCC(=O)N1[C@H](C(=O)O)C[C@@H]2CCCC[C@@H]21)C(=O)O (some centres undefined)
18,0.0724,O=C(NC(CCc1ccccc1)P(=O)(O)CC(=O)N1CCC[C@H]1C(=O)O)c1ccccc1 (some centres undefined)
19,0.0646,CC(S)C(=O)N[C@@H](Cc1c[nH]c2ccccc12)C(=O)O (stereo in doubt; form 2)
20,0.0646,O=C(O)[C@@H]1CCCN1C(=O)C1CCCC1S (some centres undefined)
21,0.0631,NC(CS)C(=O)N1CCC[C@H]1C(=O)O (some centres undefined) (H-[ξC]-Pro-OH)

row,IC50 [µM],SMILES
1,0.0562,O=C(O)C(CCc1ccccc1)N[C@H]1CCN2CCC[C@@H](C(=O)O)N2C1=O (some centres undefined)
2,0.0525,CC(C(=O)O)C1CCCCC(CS)C1=O (centres undefined)
3,0.0513,C[C@H](NC(CCc1ccccc1)P(=O)(O)O)C(=O)N1CCC[C@H]1C(=O)O (some centres undefined)
4,0.0407,C[C@H](NP(=O)(O)OCc1ccccc1)C(=O)N1CCC[C@H]1C(=O)O
5,0.0398,C[C@H](NC(CCc1ccccc1)C(=O)O)C(=O)N(CC(=O)O)C1Cc2ccccc2C1 (some centres undefined)
6,0.0363,NCCCC[C@H](OP(=O)(O)CCCCc1ccccc1)C(=O)N1CCC[C@H]1C(=O)O [CERONAPRIL]
7,0.0347,CC(CS)C(=O)N[C@@H](Cc1c[nH]c2ccccc12)C(=O)O (stereo in doubt; 30A)
8,0.0158,NCCCC[C@H](OP(=O)(O)CCCCc1ccccc1)C(=O)N1C[C@@H](O)C[C@H]1C(=O)O
9,0.0151,O=C(N[C@H](CCC(=O)N1[C@H](C(=O)O)C[C@@H]2CCCC[C@@H]21)C(=O)O)C1CCCN1C(=O)OCc1ccccc1 (some centres undefined)
10,0.01,O=C(NC(Cc1ccccc1)CP(=O)(O)CC(=O)N1CCC[C@H]1C(=O)O)c1ccccc1 (some centres undefined)
11,0.00708,C[C@H](NP(=O)(O)CCc1ccccc1)C(=O)N1CCC[C@H]1C(=O)O
12,0.00646,CCN(C[C@H](CCc1ccccc1)C(=O)O)C(=O)N1Cc2ccccc2C[C@H]1C(=O)O
13,0.00525,C[C@H](NC(CCC(=O)Nc1ccccc1)C(=O)O)C(=O)N1CCC[C@H]1C(=O)O (some centres undefined)
14,0.00479,C[C@H](CC(CCc1ccccc1)C(=O)O)C(=O)N1c2ccccc2C[C@H]1C(=O)O (some centres undefined)
15,0.00398,O=C(O)[C@@H]1CC2(CN1C(=O)CP(=O)(O)CCCCc1ccccc1)SCCS2
16,0.00324,NCCCC[C@H](OP(=O)(O)CCCCc1ccccc1)C(=O)N1C[C@H](C2CCCCC2)C[C@H]1C(=O)O
17,0.00302,C[C@@H]1CCCC(NC(CCc2ccccc2)C(=O)O)C(=O)N1CC(=O)O (some centres undefined)
18,0.00288,C[C@H](NC(CCCNC(=O)OCc1ccccc1)C(=O)O)C(=O)N1CCC[C@H]1C(=O)O (some centres undefined)
19,0.00288,C[C@H](NC(C(=O)O)C1CCCN1C(=O)c1ccccc1)C(=O)N1CCC[C@H]1C(=O)O (some centres undefined)
20,0.00282,C[C@H](NC(CCc1ccc(O)cc1)C(=O)O)C(=O)N1CCC[C@H]1C(=O)O (some centres undefined)
21,0.00257,CSC1(SC)C[C@@H](C(=O)O)N(C(=O)[C@H](CCCCN)OP(=O)(O)CCCCc2ccccc2)C1

row,IC50 [µM],SMILES
1,0.00219,NCCC[C@H](NC(CCc1ccccc1)C(=O)O)C(=O)N1CCC[C@H]1C(=O)O (some centres undefined)
2,0.00219,C[C@H](NC(CCc1ccccc1)C(=O)O)C(=O)N1CC2CCCCC2[C@H]1C(=O)O (some centres undefined)
3,0.00191,CS[C@H]1C[C@@H](C(=O)O)N(C(=O)[C@H](CCCCN)OP(=O)(O)CCCCc2ccccc2)C1
4,0.0017,O=C(O)CN1C(=O)C(NC(CCc2ccccc2)C(=O)O)CCc2ccccc21 (centres undefined)
5,0.00107,NCCCC[C@H](OP(=O)(O)CCCCc1ccccc1)C(=O)N(CC(=O)O)c1ccccc1
6,0.001,O=C(O)CCn1c(=O)n2n(c1=O)[C@H](C(=O)O)C=CC2
7,0.000891,NCCCC[C@H](OP(=O)(O)CCCCc1ccccc1)C(=O)N1C[C@@H](Cc2ccccc2)C[C@H]1C(=O)O
8,0.000871,NCCCC[C@H](OP(=O)(O)CCCCc1ccccc1)C(=O)N1C[C@H](O)C[C@H]1C(=O)O
9,0.000776,NCCCC[C@H](OP(=O)(O)CCCCc1ccccc1)C(=O)N1C[C@H](Sc2ccccc2)C[C@H]1C(=O)O
10,0.000631,NCCCC[C@H](OP(=O)(O)CCCCc1ccccc1)C(=O)N1CC2(C[C@H]1C(=O)O)SCCS2
11,0.000525,NCCCC[C@H](OP(=O)(O)CCCCc1ccccc1)C(=O)N1C[C@@H](Sc2ccccc2)C[C@H]1C(=O)O
12,0.000525,CS[C@@H]1C[C@@H](C(=O)O)N(C(=O)[C@H](CCCCN)OP(=O)(O)CCCCc2ccccc2)C1
13,0.00049,NCCCC[C@H](OP(=O)(O)CCCCc1ccccc1)C(=O)N1C[C@@H](C2CCCCC2)C[C@H]1C(=O)O
14,0.000295,NCCCC[C@H](OP(=O)(O)CCCCc1ccccc1)C(=O)N1c2ccccc2C[C@H]1C(=O)O
15,0.000295,NCCCC[C@H](OP(=O)(O)CCCCc1ccccc1)C(=O)N(CC(=O)O)C1CCCCC1
16,0.000288,COc1ccc(N(CC(=O)O)C(=O)[C@H](CCCCN)OP(=O)(O)CCCCc2ccccc2)cc1OC
17,0.000251,O=C(NC(Cc1ccccc1)C(=O)N[C@H](CCC(=O)N1c2ccccc2C[C@H]1C(=O)O)C(=O)O)OCc1ccccc1 (some centres undefined)
18,0.000229,C[C@H](NC(CCC(=O)Nc1ccc(I)cc1)C(=O)O)C(=O)N1CCC[C@H]1C(=O)O (some centres undefined)
19,0.000132,NCCCC[C@H](OP(=O)(O)CCCCc1ccccc1)C(=O)N1C[C@@H](c2ccccc2)C[C@H]1C(=O)O
20,0.000115,NCCCC[C@H](OP(=O)(O)CCCCc1ccccc1)C(=O)N(CC(=O)O)c1ccc2c(c1)OCO2
